Publication PMC10155203 (Molecular Pharmaceutics, 2023)
Where “and” joins values, the source holds several entries; their conditions need not be identical. Identical values can stand only once.

Assays:
[1] = TIM-1 dynamic in vitro gastrointestinal model, bioaccessibility of 75 mg encorafenib capsule; assay type: in vitro ADME; details: for time of maximum bioaccessibility / maximum bioaccessibility / total bioaccessibility (cumulative): TIM-1, 75 mg capsule; for maximum bioaccessibility / total bioaccessibility (cumulative): mean ± SD
Excerpt: To investigate the bioaccessibility under the different test conditions (i.e., in the fasted state, fed state, and with the use of a PPI), a dynamic in vitro GI model TIM-1 (TNO; Zeist, Netherlands) was used, which has previously been described and detailed pictorially.[25],[26] The bioaccessibility of the drug refers to the amount of drug available for drug absorption. The two filters, which are located at the end of the jejunal and ileal compartment, will capture the dissolved fraction of drug as released from the drug formulation with the help of a filtration process. The dissolved fraction of drug is the sum of drug molecules dissolved in the aqueous media (i.e., molecularly dissolved and encapsulated in the colloidal structures such as micelles). The TIM-1 model is a complex in vitro GI simulator that models the dynamic processes and conditions present in the lumen of the gastric and small intestinal regions of the GI tract. The TIM-1 system consists of a stomach, duodenum, jejunum, and ileum compartment. For more information about the setup of the TIM-1 model, the reader is referred to external literature.[27] After dosing the drug product to the stomach compartment, the computer-controlled system controls the transit of the drug formulation to the intestinal compartments at a rate that reflects the in vivo transit conditions observed in fasted, fed, and PPI states. At the end of the jejunal and ileal compartments, a lipid filtration system is installed to separate the dissolved amount of drug from these compartments and evaluate the amount of drug available for drug absorption (i.e., the bioaccessible fraction of drug). The TIM-1 model is programmed to evaluate drug product behavior in fasted, fed, and PPI conditions.[19],[28],[29] Depending on the chosen clinical condition (PPI, fed), specific experimental protocol is executed. Fasted state is simulated by implementing a predefined pH curve controlled by secretion of 1 M HCl into the gastric compartment. The gastric pH starts at pH 3 (including the coadministered glass of water) and will decrease to pH 1.7 as gastric secretion will acidify the gastric content. When the fasted PPI state is simulated, gastric content is adjusted to pH 4.5, and only water is secreted into the stomach compartment to maintain constant pH. During fed state studies, gastric pH starts at pH 6.5 and will decrease to basic fasted conditions (pH 1.7) as the food empties the stomach, and gastric secretion will be activated. Due to secretion and transit, the volumes and pH remain constant in the intestinal compartments. […] For more information about the TIM-1 settings and the determination of bioaccessible fraction, the reader is referred to external literature.[27],[28] The bioaccessible fraction was determined by withdrawing samples from the filtrate (at the end of the jejunum and ileum compartment) and these samples were, subsequently, analyzed by HPLC. The expression of the bioaccessible fraction can be depicted in a cumulative or noncumulative order to observe how much drug will become available as a function of time. […]

[2] = tested on: CYP2C19; design: method as in PMID 27693678; details: fitted using in vivo data; cited from earlier work

**Q.** Which “time of maximum bioaccessibility” value ([1]; PPI) does the source give for `COC(=O)N[C@@H](C)CNc1nccc(-c2cn(C(C)C)nc2-c2cc(Cl)cc(NS(C)(=O)=O)c2F)n1` [encorafenib, Encorafenib] here?
**A.** 1.5 h

**Q.** And the maximum bioaccessibility ([1]; PPI)?
**A.** 18% and 18 ± 4%

**Q.** What about the “total bioaccessibility (cumulative)” value ([1]; PPI) of the same compound?
**A.** 83% and 83 ± 6%

**Q.** And the “time of maximum bioaccessibility” value ([1]; fasted)?
**A.** 1.5 h

**Q.** And the maximum bioaccessibility ([1]; fasted)?
**A.** 16% and 16 ± 4%

**Q.** And the “total bioaccessibility (cumulative)” value ([1]; fasted)?
**A.** 77% and 77 ± 4%

**Q.** What about the “time of maximum bioaccessibility” value ([1]; fed) of the same compound?
**A.** 4 h

**Q.** And the maximum bioaccessibility ([1]; fed)?
**A.** 13% and 13 ± 0%

**Q.** And the “total bioaccessibility (cumulative)” value ([1]; fed)?
**A.** 80% and 80 ± 1%

**Q.** What about the bioaccessible fraction ([1]; TIM-1, in the 3 conditions (fasted, fed, PPI)) of the same compound?
**A.** ≥ 80%

**Q.** And the “gut CYP2C19 Km” value [2]?
**A.** 7.51 mg/L

**Q.** And the “gut CYP2C19 Vmax” value [2]?
**A.** 0.00504 mg/s

**Q.** What about the “liver CYP2C19 Km” value [2] of the same compound?
**A.** 7.51 mg/L

**Q.** And the “liver CYP2C19 Vmax” value [2]?
**A.** 0.00504 mg/s
